Patent US20090232909A1, “Method for determining physiological effects of hemoglobin” (priority 1999, published 2009)
Entries after “also recorded” stand apart in the source; their conditions may differ.

Assays:
IOVs = test: Binding of SNO-Hb to IOVs from native or DIDS-treated RBCs; settings: 10 mM MOPS, pH 7, 21% O2
Experimental: (§1) Immunoprecipitation was carried out by incubation of TX-100 or NP-40 extracts with antibodies followed by protein G-Sepharose. We employed two monoclonal anti-AE1 antibodies (Sigma, clone BIII-136, and kindly provided by M. Telen) that recognized epitopes in the cytoplasmic domain and that produced indistinguishable results. Immune complexes were eluted with 10 mM glycine at pH 3.0, and eluates were adjusted immediately to pH 7.4 followed by photolysis/chemiluminescence. Efficiency of immunoprecipitation was confirmed by Western blotting. Binding of SNO-Hb to IOVs was assessed in 10 mM MOPS buffer, pH 7, at room temperature and 21% O2. Incubation was for 15 mins before IOVs were solubilized in 1% TX-100, and heme content was assessed spectrophotometrically. When employed, RBCs were treated for 60 mins with DIDS (0.1 mM; calculated 10-fold molar excess over AE1), then washed thoroughly to remove unreacted DIDS. RBCs were then exposed to NO (as above) or used to prepare DIDS-modified IOVs (as above).

AE1 = molecular target: T1, AE1 (Homo sapiens, UniProt P02730); test: SNO content of AE1 immunoprecipitates from IOV and RBC membrane extracts; format: biochemical; settings: RBCs treated with 0.1 mM DIDS before NO
T1 construct: immunoprecipitated AE1 with monoclonal antibodies, and measured NO in immunoprecipitates (IPs); endogenous in cells; host or cells: RBCs (fresh venous blood) and IOVs from outdated RBCs; TX-100 or NP-40 extracts
T1 sequence (P02730 1-911): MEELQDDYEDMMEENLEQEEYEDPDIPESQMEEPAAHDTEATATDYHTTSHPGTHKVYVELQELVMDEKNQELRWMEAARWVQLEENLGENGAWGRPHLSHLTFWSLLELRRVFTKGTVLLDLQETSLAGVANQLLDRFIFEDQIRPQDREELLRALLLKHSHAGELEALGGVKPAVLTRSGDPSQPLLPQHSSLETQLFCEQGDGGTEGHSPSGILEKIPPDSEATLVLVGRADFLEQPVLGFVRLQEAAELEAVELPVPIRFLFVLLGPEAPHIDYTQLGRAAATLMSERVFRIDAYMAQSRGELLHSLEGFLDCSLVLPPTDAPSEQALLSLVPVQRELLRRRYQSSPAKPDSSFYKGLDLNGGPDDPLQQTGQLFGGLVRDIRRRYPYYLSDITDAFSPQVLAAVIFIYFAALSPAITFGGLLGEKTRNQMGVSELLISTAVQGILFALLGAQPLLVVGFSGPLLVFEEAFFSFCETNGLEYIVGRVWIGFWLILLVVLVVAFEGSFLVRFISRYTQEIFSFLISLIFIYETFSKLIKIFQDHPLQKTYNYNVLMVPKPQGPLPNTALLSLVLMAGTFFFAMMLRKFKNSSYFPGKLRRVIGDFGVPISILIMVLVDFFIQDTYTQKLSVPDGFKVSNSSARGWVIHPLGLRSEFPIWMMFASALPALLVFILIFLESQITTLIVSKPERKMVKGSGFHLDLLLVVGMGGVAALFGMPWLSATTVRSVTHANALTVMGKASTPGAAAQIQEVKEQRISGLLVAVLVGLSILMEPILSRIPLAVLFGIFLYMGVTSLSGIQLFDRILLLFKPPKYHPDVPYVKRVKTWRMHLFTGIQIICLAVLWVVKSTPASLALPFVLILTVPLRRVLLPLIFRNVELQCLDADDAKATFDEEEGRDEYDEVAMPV
Experimental: as §1
To assess this mechanism, we incubated IOVs with free or Sepharose-bound NO-Hb and also treated RBCs with NO(NO:heme ratio of 1:250), prepared TX-100 or NP-40 extracts of IOVs and RBC membranes, immunoprecipitated AE1 with monoclonal antibodies, and measured NO in immunoprecipitates (IPs). […] SNO was detected at negligible levels in IPs generated with a non-specific mouse IgG (FIGS. 8A-8C). […]

With `O=S(=O)(O)c1cc(N=C=S)ccc1C=Cc1ccc(N=C=S)cc1S(=O)(=O)O` [DIDS, 4,4′-diisothiocyanatostilbene-2,2′-disulfonic acid] the “SNO-Hb binding to IOVs from native vs DIDS-treated RBCs” value (IOVs) was “equal affinity” and the “effect on SNO content of AE1 IPs from RBC membrane extracts” value (AE1) was “reduced substantially; also recorded: greatly reduced”.
